Results published in patent publication US20240228448A1 (Washington University, priority 2021, published 2024).
Where “and” joins values, the source holds several entries; their conditions need not be identical. Identical values can stand only once.

Legend:
[1] = Log D7.4 measurement (1-octanol/PBS buffer); type: physicochemical; conditions: pH 7.4, n=3
Procedure: Partition coefficient was measured by mixing the [^18F]FS1P1 sample with 3 mL each of 1-octanol and buffer that is 0.1 M phosphate and pH equals 7.4 in a test tube. The mixture in the test tube was vortexed for 20 sec followed by centrifugation for 1 min at room temperature. Then 2 mL of the organic layer was transferred to a second test tube, and 1 mL of 1-octanol and 3 mL of PBS buffer were added. The resulting mixture was vortexed for 20 sec, followed by centrifugation for 1 min at room temperature. Then 1 mL of the organic and aqueous layer were taken separately for measurement. The radioactivity content values (count per minute) of two samples (1 mL each) from the 1-octanol and buffer layers were counted using a gamma counter. The partition coefficient Log D7.4 was determined by calculating as the decimal logarithm the ratio of cpm/mL between 1-octanol and PBS buffer. The measurements were repeated three times. The value of the partition coefficient is 2.62±0.31.

[2] = Ex vivo biodistribution study in Sprague Dawley rats; conditions: SD rats
Procedure: To evaluate the kinetics and the tissue distribution of [^18F]FS1P1 in rodents, Sprague Dawley (SD) male rats (6-7 weeks old; 200-300 g) were used and euthanized at 5, 30, 60, and 120 min post-injection. The radioactivity uptake of each organ was calculated as percentage injected dose per gram (% ID/gram). As shown in FIG. 7A-FIG. 7B, the initial tracer uptake was high in most tissues at 5 min. The liver had the highest uptake (% ID/g) at 3.04±0.18, whereas the heart, lung, spleen, kidney, and small intestine had moderate to high uptake at 1.39±0.15, 1.44±0.13, 1.14±0.13, 1.76±0.15, and 1.00±0.21 respectively. The radioactivity was rapidly washed out from heart, lung, pancreas, spleen, kidney, and liver, at 30 min post injection with ID %/g values decreasing to 0.55±0.02, 0.84±0.05, 0.66±0.04, 0.54±0.03, 1.13±0.66, and 2.51±0.10 respectively as shown in FIG. 7A.
A dose of [^18F]FS1P1 (˜3.7 MBq/100 μL) was injected via the tail vein into SD rats (male; 6-7 weeks old; 200-300 g). Rats were euthanized under anesthesia at 5, 30, 60, and 120 min post-injection (n=4 per group). Tissues of interest including blood, heart, lung, muscle, fat, pancreas, spleen, kidney, liver, brain, bone, thymus, small intestine, and large intestine were collected, weighed, and counted on an automated Beckman Gamma counter (Beckman, Brea, CA). To evaluate the uptake of [^18F]FS1P1 within the brain, brain dissection was performed and different brain regions including brain stem, cerebellum, cortex, striatum, thalamus, and hippocampus were collected and evaluated. The uptake of each organ was calculated and expressed as a percentage of the injection dose per gram of wet tissue (% ID per gram).

S1P1 = target: T1, S1P1 (Rattus norvegicus, UniProt P48303); test: In vitro autoradiography of rat spinal cord and brain sections with CS1P1 blocking; type: binding; conditions: blocked by CS1P1 (5 μM), in words
T1 construct: conducted on rat spinal cord and brain section incubated with [^18F]FS1P1; from tissue; host or cells: rat brain (cortex, hippocampus) and spinal cord sections
T1 sequence (P48303 whole entry): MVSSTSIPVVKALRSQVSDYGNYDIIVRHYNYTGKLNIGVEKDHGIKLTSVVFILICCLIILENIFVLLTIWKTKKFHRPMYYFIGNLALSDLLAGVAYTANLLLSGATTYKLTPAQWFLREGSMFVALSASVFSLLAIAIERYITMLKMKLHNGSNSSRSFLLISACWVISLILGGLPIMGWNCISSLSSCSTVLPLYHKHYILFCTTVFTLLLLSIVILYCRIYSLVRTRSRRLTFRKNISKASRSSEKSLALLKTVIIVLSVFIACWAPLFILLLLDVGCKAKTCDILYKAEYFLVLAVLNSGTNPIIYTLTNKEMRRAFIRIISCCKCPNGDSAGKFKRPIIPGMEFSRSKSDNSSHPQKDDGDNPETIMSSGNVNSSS

[3] = MicroPET brain study in cynomolgus macaque; conditions: macaque brain
Procedure: Using a Focus 220 microPET scanner to collect dynamic scans for 2 hours after intravenous injection of ˜0.35 GBq dose into male macaques. Radiometabolites were measured from arterial blood samples collected at 5, 15, 30, and 60 min post-injection of radiotracer. The HPLC eluent was collected, and fractions were counted in a gamma counter.
Male macaques (˜10 kg) were used for PET imaging data acquisition with a microPET Focus 220 scanner (Siemens Inc., Knoxville, TN). Animals were anesthetized using ketamine and glycopyrrolate and maintained with inhalation of isoflurane. Core temperature was kept at 37° C. with a heated water blanket. The head was secured in a customized head holder. […] Emission data were corrected for dead time, scatter, and attenuation and then reconstructed. […] Predefined brain regions of interest from the template were applied to the co-registered PET image to obtain regional time-activity curves. The measurement of the brain uptake of radiotracer was standardized to body weight and the dose of radioactivity injected to yield a standardized uptake value (SUV).
The brain uptakes of these tracers were measured by Focus 220 microPET scanner to collect dynamic scans for 2 hours after intravenous injection of ˜0.35 GBq dose into male cynomolgus macaques (8-9 kg).

With `Cc1ccccc1-c1ccc(-c2nc(-c3ccc(CN(C)CCC(=O)O)c([18F])c3)no2)cc1C(F)(F)F` [[^18F]FS1P1] the “Log D7.4” value [1] was 2.62±0.31, the logD [1] was 2.62 ± 0.31 and the “Tissue uptake (% ID/g)” value ([2]; Blood, 5 min post-injection) was 0.16 ± 0.09 % ID/g. The “Tissue uptake (% ID/g)” value ([2]; Blood, 30 min post-injection) was 0.13 ± 0.01 % ID/g, the “Tissue uptake (% ID/g)” value ([2]; Blood, 60 min post-injection) was 0.13 ± 0.01 % ID/g and the “Tissue uptake (% ID/g)” value ([2]; Blood, 120 min post-injection) was 0.10 ± 0.01 % ID/g. The “Tissue uptake (% ID/g)” value ([2]; Bone, 5 min post-injection) was 0.20 ± 0.13 % ID/g, the “Tissue uptake (% ID/g)” value ([2]; Bone, 30 min post-injection) was 0.16 ± 0.01 % ID/g and the “Tissue uptake (% ID/g)” value ([2]; Bone, 60 min post-injection) was 0.15 ± 0.02 % ID/g. For the same molecule, the “Tissue uptake (% ID/g)” value ([2]; Bone, 120 min post-injection) was 0.11±0.02 % ID/g, the “Tissue uptake (% ID/g)” value ([2]; Brain stem, 5 min post-injection) was 0.48 ± 0.14 % ID/g and the “Tissue uptake (% ID/g)” value ([2]; Brain stem, 30 min post-injection) was 0.52 ± 0.03 % ID/g. The “Tissue uptake (% ID/g)” value ([2]; Brain stem, 60 min post-injection) was 0.68 ± 0.07 % ID/g, the “Tissue uptake (% ID/g)” value ([2]; Brain stem, 120 min post-injection) was 0.71 ± 0.11 % ID/g and the “Tissue uptake (% ID/g)” value ([2]; Cerebellum, 5 min post-injection) was 0.42 ± 0.28 % ID/g. For the same molecule, the “Tissue uptake (% ID/g)” value ([2]; Cerebellum, 30 min post-injection) was 0.52 ± 0.05 % ID/g, the “Tissue uptake (% ID/g)” value ([2]; Cerebellum, 60 min post-injection) was 0.66 ± 0.07 % ID/g and the “Tissue uptake (% ID/g)” value ([2]; Cerebellum, 120 min post-injection) was 0.77 ± 0.12 % ID/g. The “Tissue uptake (% ID/g)” value ([2]; Cortex, 5 min post-injection) was 0.35 ± 0.25 % ID/g, the “Tissue uptake (% ID/g)” value ([2]; Cortex, 30 min post-injection) was 0.51 ± 0.07 % ID/g and the “Tissue uptake (% ID/g)” value ([2]; Cortex, 60 min post-injection) was 0.59 ± 0.13 % ID/g. The “Tissue uptake (% ID/g)” value ([2]; Cortex, 120 min post-injection) was 0.67 ± 0.10 % ID/g, the “Tissue uptake (% ID/g)” value ([2]; Fat, 5 min post-injection) was 0.05 ± 0.03 % ID/g and the “Tissue uptake (% ID/g)” value ([2]; Fat, 30 min post-injection) was 0.16 ± 0.02 % ID/g. The “Tissue uptake (% ID/g)” value ([2]; Fat, 60 min post-injection) was 0.15 ± 0.02 % ID/g, the “Tissue uptake (% ID/g)” value ([2]; Fat, 120 min post-injection) was 0.14 ± 0.02 % ID/g and the “Tissue uptake (% ID/g)” value ([2]; Heart, 5 min post-injection) was 1.02 ± 0.69 % ID/g. The “Tissue uptake (% ID/g)” value ([2]; Heart, 30 min post-injection) was 0.55±0.02 % ID/g and 0.54 ± 0.03 % ID/g, the “Tissue uptake (% ID/g)” value ([2]; Heart, 60 min post-injection) was 0.49 ± 0.02 % ID/g and the “Tissue uptake (% ID/g)” value ([2]; Heart, 120 min post-injection) was 0.39 ± 0.07 % ID/g. For the same molecule, the “Tissue uptake (% ID/g)” value ([2]; Hippocampus, 5 min post-injection) was 0.32 ± 0.21 % ID/g, the “Tissue uptake (% ID/g)” value ([2]; Hippocampus, 30 min post-injection) was 0.41 ± 0.03 % ID/g and the “Tissue uptake (% ID/g)” value ([2]; Hippocampus, 60 min post-injection) was 0.54 ± 0.03 % ID/g. The “Tissue uptake (% ID/g)” value ([2]; Hippocampus, 120 min post-injection) was 0.42 ± 0.28 % ID/g, the “Tissue uptake (% ID/g)” value ([2]; Kidney, 5 min post-injection) was 1.33 ± 0.87 % ID/g and the “Tissue uptake (% ID/g)” value ([2]; Kidney, 30 min post-injection) was 1.13±0.66 % ID/g and 1.13 ± 0.13 % ID/g. For the same molecule, the “Tissue uptake (% ID/g)” value ([2]; Kidney, 60 min post-injection) was 1.10 ± 0.08 % ID/g, the “Tissue uptake (% ID/g)” value ([2]; Kidney, 120 min post-injection) was 1.02 ± 0.17 % ID/g and the “Tissue uptake (% ID/g)” value ([2]; Liver, 5 min post-injection) was 2.30 ± 1.50 % ID/g. For the same molecule, the “Tissue uptake (% ID/g)” value ([2]; Liver, 30 min post-injection) was 2.51±0.10 % ID/g and 2.51 ± 0.20 % ID/g, the “Tissue uptake (% ID/g)” value ([2]; Liver, 60 min post-injection) was 2.32 ± 0.10 % ID/g and the “Tissue uptake (% ID/g)” value ([2]; Liver, 120 min post-injection) was 2.08 ± 0.47 % ID/g. The “Tissue uptake (% ID/g)” value ([2]; Lung, 5 min post-injection) was 1.08 ± 0.74 % ID/g, the “Tissue uptake (% ID/g)” value ([2]; Lung, 30 min post-injection) was 0.84±0.05 % ID/g and 0.84 ± 0.09 % ID/g and the “Tissue uptake (% ID/g)” value ([2]; Lung, 60 min post-injection) was 0.68 ± 0.04 % ID/g. For the same molecule, the “Tissue uptake (% ID/g)” value ([2]; Lung, 120 min post-injection) was 0.43 ± 0.30 % ID/g, the “Tissue uptake (% ID/g)” value ([2]; Muscle, 5 min post-injection) was 0.11 ± 0.07 % ID/g and the “Tissue uptake (% ID/g)” value ([2]; Muscle, 30 min post-injection) was 0.19 ± 0.01 % ID/g. For the same molecule, the “Tissue uptake (% ID/g)” value ([2]; Muscle, 60 min post-injection) was 0.18 ± 0.05 % ID/g, the “Tissue uptake (% ID/g)” value ([2]; Muscle, 120 min post-injection) was 0.15 ± 0.02 % ID/g and the “Tissue uptake (% ID/g)” value ([2]; Pancreas, 5 min post-injection) was 0.72 ± 0.47 % ID/g. The “Tissue uptake (% ID/g)” value ([2]; Pancreas, 30 min post-injection) was 0.66±0.04 % ID/g and 0.66 ± 0.08 % ID/g, the “Tissue uptake (% ID/g)” value ([2]; Pancreas, 60 min post-injection) was 0.52 ± 0.05 % ID/g and the “Tissue uptake (% ID/g)” value ([2]; Pancreas, 120 min post-injection) was 0.43 ± 0.06 % ID/g. For the same molecule, the “in vivo defluorination (bone uptake 5 to 120 min)” value ([2]; in words) was “no defluorination”, the “Tissue uptake (% ID/g)” value ([2]; Small intestine, 5 min post-injection) was 0.75 ± 0.57 % ID/g and the “Tissue uptake (% ID/g)” value ([2]; Small intestine, 30 min post-injection) was 1.40 ± 0.36 % ID/g. For the same molecule, the “Tissue uptake (% ID/g)” value ([2]; Small intestine, 60 min post-injection) was 1.42 ± 0.36 % ID/g, the “Tissue uptake (% ID/g)” value ([2]; Small intestine, 120 min post-injection) was 0.87 ± 0.21 % ID/g and the “Tissue uptake (% ID/g)” value ([2]; Spleen, 5 min post-injection) was 0.86 ± 0.58 % ID/g. The “Tissue uptake (% ID/g)” value ([2]; Spleen, 30 min post-injection) was 0.54±0.03 % ID/g and 0.54 ± 0.06 % ID/g, the “Tissue uptake (% ID/g)” value ([2]; Spleen, 60 min post-injection) was 0.47 ± 0.05 % ID/g and the “Tissue uptake (% ID/g)” value ([2]; Spleen, 120 min post-injection) was 0.37 ± 0.05 % ID/g. For the same molecule, the “Tissue uptake (% ID/g)” value ([2]; Striatum, 5 min post-injection) was 0.32 ± 0.21 % ID/g, the “Tissue uptake (% ID/g)” value ([2]; Striatum, 30 min post-injection) was 0.46 ± 0.05 % ID/g and the “Tissue uptake (% ID/g)” value ([2]; Striatum, 60 min post-injection) was 0.43 ± 0.29 % ID/g. For the same molecule, the “Tissue uptake (% ID/g)” value ([2]; Striatum, 120 min post-injection) was 0.67 ± 0.07 % ID/g, the “Tissue uptake (% ID/g)” value ([2]; Thymus, 5 min post-injection) was 0.23 ± 0.16 % ID/g and the “Tissue uptake (% ID/g)” value ([2]; Thymus, 30 min post-injection) was 0.30 ± 0.03 % ID/g. For the same molecule, the “Tissue uptake (% ID/g)” value ([2]; Thymus, 60 min post-injection) was 0.30 ± 0.04 % ID/g, the “Tissue uptake (% ID/g)” value ([2]; Thymus, 120 min post-injection) was 0.31 ± 0.05 % ID/g and the rat brain uptake ([2]; 5 min post-injection) was 0.48±0.06 ID %/g. For the same molecule, the rat brain uptake ([2]; 30 min post-injection) was 0.48±0.02 ID %/g, the rat brain uptake ([2]; 60 min post-injection) was 0.60±0.04 ID %/g and the rat brain uptake ([2]; 120 min post-injection) was 0.65±0.03 ID %/g. For the same molecule, the “Tissue uptake (% ID/g)” value ([2]; thalamus, 5 min post-injection) was 0.42 ± 0.31 % ID/g, the “Tissue uptake (% ID/g)” value ([2]; thalamus, 30 min post-injection) was 0.53 ± 0.03 % ID/g and the “Tissue uptake (% ID/g)” value ([2]; thalamus, 60 min post-injection) was 0.64 ± 0.06 % ID/g. The “Tissue uptake (% ID/g)” value ([2]; thalamus, 120 min post-injection) was 0.70 ± 0.15 % ID/g, the “Tissue uptake (% ID/g)” value ([2]; total brain, 5 min post-injection) was 2.65 ± 1.63 % ID/g and the “Tissue uptake (% ID/g)” value ([2]; total brain, 30 min post-injection) was 3.41 ± 0.29 % ID/g. The “Tissue uptake (% ID/g)” value ([2]; total brain, 60 min post-injection) was 4.12 ± 0.70 % ID/g, the “Tissue uptake (% ID/g)” value ([2]; total brain, 120 min post-injection) was 4.58 ± 0.92 % ID/g and the “autoradiography signal and blocking” value (S1P1) was “strong signal, which was blocked”. For the same molecule, the “brain uptake, standard uptake value (SUV)” value ([3]; 120 min post-injection) was roughly 2.3 and the “brain uptake, maximum SUV value” ([3]; from 20 to 120 min post-injection) was roughly 2.3.
